Activity calls are given as the source filed them. No cut-off for these calls is given here.
Columns and labels:
[1] = tested on: MV4-11; assay: Potency index, ratio of BAY-1143572 IC50 to test compound IC50 for antiproliferative activity against human MV4-11 cells incubated for 72 hrs by MTT assay; assay type: functional
[2] = tested on: MV4-11; assay: Induction of apoptosis in human MV4-11 cells assessed as late apoptotic cells at 1000 nM after 6 hrs by AnnexinV-FITC/propidium iodide staining based flow cytometry (reference value: 4.29%); assay type: functional
[3] = tested on: MV4-11; assay: Induction of apoptosis in human MV4-11 cells assessed as late apoptotic cells at 250 nM after 6 hrs by AnnexinV-FITC/propidium iodide staining based flow cytometry (reference value: 4.29%); assay type: functional
[4] = tested on: MV4-11; assay: Induction of apoptosis in human MV4-11 cells assessed as late apoptotic cells at 30 nM after 6 hrs by AnnexinV-FITC/propidium iodide staining based flow cytometry (reference value: 4.29%); assay type: functional
[5] = tested on: MV4-11; assay: Induction of apoptosis in human MV4-11 cells assessed as total apoptotic cells at 1 nM after 6 hrs by AnnexinV-FITC/propidium iodide staining based flow cytometry (reference value: 9.75 %); assay type: functional
[6] = tested on: MV4-11; assay: Induction of apoptosis in human MV4-11 cells assessed as viable cells at 1 nM after 6 hrs by AnnexinV-FITC/propidium iodide staining based flow cytometry (reference value: 90.1 %); assay type: functional; settings: read-out: Activity
[7] = biological target: Cyclin-dependent kinase 9 (Homo sapiens) (UniProt P50750); assay: Inhibition of human full length recombinant CDK9 expressed in bacterial expression system assessed as remaining enzyme activity at 1 uM by competitive binding Kinome scan analysis
[8] = tested on: A549; assay: Antiproliferative activity against human A549 cells incubated for 72 hrs by MTT assay; assay type: functional, cell-based; settings: A549, 72 h
[9] = tested on: MV4-11; assay: Induction of apoptosis in human MV4-11 cells assessed as early apoptotic cells at 100 nM after 6 hrs by AnnexinV-FITC/propidium iodide staining based flow cytometry (reference value: 5.36 %); assay type: functional
[10] = biological target: T1, Protein cereblon/Cyclin-dependent kinase 9 (Homo sapiens, UniProt P50750+Q96SW2); assay: Protac activity at CRBN/CDK9 in human MV4-11 cells assessed as induction of CDK9 degradation by measuring MCL-1 protein expression level at 250 nM measured after 12 hrs by western blot analysis; assay type: cell-based
[11] = tested on: MV4-11; assay: Induction of apoptosis in human MV4-11 cells assessed as total apoptotic cells at 100 nM after 6 hrs by AnnexinV-FITC/propidium iodide staining based flow cytometry (reference value: 9.75 %); assay type: functional
[12] = biological target: T1, Protein cereblon/Cyclin-dependent kinase 9; assay: PROTAC activity at CRBN/CDK9 in human MV4-11 cells assessed as reduction in CDK9 protein expression at 100 nM measured after 3 hrs by whole proteome mass spectrometry; assay type: cell-based
[13] = biological target: CDK9/cyclin T1 (Homo sapiens, UniProt P50750); assay: Inhibition of CDK9/cyclin T (unknown origin) using YSPTSPSYSPTSPSYSPTSPKKK or histone H1 as substrate incubated for 2 hrs in presence of [gamma-33P]ATP by radioactive filter binding assay; assay type: protein-complex assay
[14] = tested on: HCT-116; assay: Antiproliferative activity against human HCT-116 cells incubated for 72 hrs by MTT assay; assay type: functional, cell-based; settings: HCT-116, 72 h
[15] = tested on: MV4-11; assay: Induction of apoptosis in human MV4-11 cells assessed as necrotic cells at 250 nM after 6 hrs by AnnexinV-FITC/propidium iodide staining based flow cytometry (reference value: 0.16 %); assay type: functional
[16] = tested on: MV4-11; assay: Induction of apoptosis in human MV4-11 cells assessed as total apoptotic cells at 500 nM after 6 hrs by AnnexinV-FITC/propidium iodide staining based flow cytometry (reference value: 9.75 %); assay type: functional
[17] = tested on: HepG2; assay: Antiproliferative activity against human HepG2 cells incubated for 72 hrs by MTT assay; assay type: functional, cell-based; settings: HepG2, 72 h
[18] = tested on: B16; assay: Antiproliferative activity against mouse B16 cells incubated for 72 hrs by MTT assay; assay type: functional, cell-based; settings: B16, 72 h
[19] = tested on: MV4-11; assay: Induction of apoptosis in human MV4-11 cells assessed as late apoptotic cells at 1 nM after 6 hrs by AnnexinV-FITC/propidium iodide staining based flow cytometry (reference value: 4.29%); assay type: functional
[20] = tested on: MV4-11; assay: Induction of apoptosis in human MV4-11 cells assessed as necrotic cells at 1 nM after 6 hrs by AnnexinV-FITC/propidium iodide staining based flow cytometry (reference value: 0.16 %); assay type: functional
[21] = tested on: MV4-11; assay: Induction of apoptosis in human MV4-11 cells assessed as total apoptotic cells at 30 nM after 6 hrs by AnnexinV-FITC/propidium iodide staining based flow cytometry (reference value: 9.75 %); assay type: functional
[22] = biological target: Protein cereblon/Cyclin-dependent kinase 7 (Homo sapiens) (UniProt P50613+Q96SW2); assay: PROTAC activity at CRBN/CDK7 in human MV4-11 cells assessed as induction of CDK7 degradation at 31.25 to 500 nM measured after 3 hrs by western blot analysis; assay type: cell-based; settings: dose 31.25-500 nM
[23] = biological target: Protein cereblon/Cyclin-dependent kinase 1 (Homo sapiens) (UniProt P06493+Q96SW2); assay: PROTAC activity at CRBN/CDK1 in human MV4-11 cells assessed as induction of CDK1 degradation at 31.25 to 500 nM measured after 3 hrs by western blot analysis; assay type: cell-based; settings: dose 31.25-500 nM
[24] = tested on: MV4-11; assay: Induction of apoptosis in human MV4-11 cells assessed as viable cells at 1000 nM after 6 hrs by AnnexinV-FITC/propidium iodide staining based flow cytometry (reference value: 90.1 %); assay type: functional; settings: read-out: Activity
[25] = biological target: T1, Protein cereblon/Cyclin-dependent kinase 9; assay: Protac activity at CRBN/CDK9 in human MV4-11 cells assessed as induction of CDK9 degradation at 250 nM pretreated for 2 hrs with E3 ligase cereblon ligand, pomalidomide followed by incubation with compound for 6 hrs by western blot analysis; assay type: cell-based
[26] = Half life in BALB/c nude mouse xenografted with human MV4-11 cells at 5 mg/kg, iv by LC/MS/MS analysis; assay type: ADME, organism-based; settings: in vivo
[27] = tested on: MV4-11; assay: Induction of apoptosis in human MV4-11 cells assessed as necrotic cells at 100 nM after 6 hrs by AnnexinV-FITC/propidium iodide staining based flow cytometry (reference value: 0.16 %); assay type: functional
[28] = tested on: MV4-11; assay: Induction of apoptosis in human MV4-11 cells assessed as necrotic cells at 500 nM after 6 hrs by AnnexinV-FITC/propidium iodide staining based flow cytometry (reference value: 0.16 %); assay type: functional
[29] = tested on: MV4-11; assay: Induction of apoptosis in human MV4-11 cells assessed as early apoptotic cells at 250 nM after 6 hrs by AnnexinV-FITC/propidium iodide staining based flow cytometry (reference value: 5.36 %); assay type: functional
[30] = biological target: T1, Protein cereblon/Cyclin-dependent kinase 9; assay: Protac activity at CRBN/CDK9 in human MV4-11 cells assessed as induction of CDK9 degradation at 250 nM pretreated for 2 hrs with CDK9 inhibitor, […] followed by incubation with compound for 6 hrs by western blot analysis; assay type: cell-based
[31] = tested on: MOLM-13; assay: Antiproliferative activity against human MOLM-13 cells incubated for 72 hrs by MTT assay; assay type: functional, cell-based; settings: MOLM-13, 72 h
[32] = tested on: MV4-11; assay: Induction of apoptosis in human MV4-11 cells assessed as necrotic cells at 30 nM after 6 hrs by AnnexinV-FITC/propidium iodide staining based flow cytometry (reference value: 0.16 %); assay type: functional
[33] = tested on: MV4-11; assay: Induction of apoptosis in human MV4-11 cells assessed as early apoptotic cells at 500 nM after 6 hrs by AnnexinV-FITC/propidium iodide staining based flow cytometry (reference value: 5.36 %); assay type: functional

T1 sequence (P50750 whole entry, looked up): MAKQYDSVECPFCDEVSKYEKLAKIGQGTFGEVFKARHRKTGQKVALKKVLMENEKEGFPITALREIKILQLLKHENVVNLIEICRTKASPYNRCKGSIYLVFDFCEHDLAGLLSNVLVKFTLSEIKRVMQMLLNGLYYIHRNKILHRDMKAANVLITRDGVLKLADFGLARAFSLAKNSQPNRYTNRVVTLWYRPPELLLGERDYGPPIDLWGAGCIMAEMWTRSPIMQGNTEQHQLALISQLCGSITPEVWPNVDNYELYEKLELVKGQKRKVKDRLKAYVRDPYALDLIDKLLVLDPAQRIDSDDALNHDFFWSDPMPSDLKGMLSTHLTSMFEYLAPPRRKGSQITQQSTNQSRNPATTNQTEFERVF
T1 sequence (Q96SW2 whole entry, looked up): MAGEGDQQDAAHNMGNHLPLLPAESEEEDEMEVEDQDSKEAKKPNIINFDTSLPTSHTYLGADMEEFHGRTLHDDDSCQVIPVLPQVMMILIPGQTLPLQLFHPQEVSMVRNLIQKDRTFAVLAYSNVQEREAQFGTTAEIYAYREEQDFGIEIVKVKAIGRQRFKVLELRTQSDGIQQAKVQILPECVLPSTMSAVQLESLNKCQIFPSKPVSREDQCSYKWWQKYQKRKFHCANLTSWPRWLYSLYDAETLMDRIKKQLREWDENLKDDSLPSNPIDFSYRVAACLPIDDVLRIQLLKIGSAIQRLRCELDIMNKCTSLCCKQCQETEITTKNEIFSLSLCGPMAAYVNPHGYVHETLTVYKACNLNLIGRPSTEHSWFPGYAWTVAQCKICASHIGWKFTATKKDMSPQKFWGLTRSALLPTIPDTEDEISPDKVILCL
Sequence of Protein cereblon/Cyclin-dependent kinase 1 (Homo sapiens) (P06493 whole entry, looked up): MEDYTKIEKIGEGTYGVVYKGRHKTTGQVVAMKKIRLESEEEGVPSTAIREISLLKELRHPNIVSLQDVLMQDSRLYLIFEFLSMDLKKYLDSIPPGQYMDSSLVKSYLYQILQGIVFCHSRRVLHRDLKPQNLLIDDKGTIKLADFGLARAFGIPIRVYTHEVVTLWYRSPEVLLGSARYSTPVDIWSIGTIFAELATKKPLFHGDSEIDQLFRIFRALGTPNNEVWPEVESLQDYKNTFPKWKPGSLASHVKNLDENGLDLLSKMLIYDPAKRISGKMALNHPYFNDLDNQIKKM
Sequence of Protein cereblon/Cyclin-dependent kinase 1 (Homo sapiens) (Q96SW2 whole entry, looked up): as the sequence (Q96SW2 whole entry, looked up) above
Sequence of Cyclin-dependent kinase 9 (Homo sapiens) (P50750 whole entry): as the sequence (P50750 whole entry, looked up) above
Sequence of Protein cereblon/Cyclin-dependent kinase 7 (Homo sapiens) (P50613 whole entry, looked up): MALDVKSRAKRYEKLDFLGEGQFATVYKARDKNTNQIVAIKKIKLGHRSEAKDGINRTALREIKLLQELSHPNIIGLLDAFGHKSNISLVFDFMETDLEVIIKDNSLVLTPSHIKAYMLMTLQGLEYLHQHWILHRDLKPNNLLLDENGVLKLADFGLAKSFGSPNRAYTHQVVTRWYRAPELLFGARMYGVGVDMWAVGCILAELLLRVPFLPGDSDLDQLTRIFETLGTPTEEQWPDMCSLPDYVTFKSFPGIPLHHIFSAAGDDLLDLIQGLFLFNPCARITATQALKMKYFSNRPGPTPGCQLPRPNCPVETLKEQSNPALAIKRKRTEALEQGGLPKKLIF
Sequence of Protein cereblon/Cyclin-dependent kinase 7 (Homo sapiens) (Q96SW2 whole entry, looked up): as the sequence (Q96SW2 whole entry, looked up) above
Sequence of CDK9/cyclin T1 (O60563 whole entry): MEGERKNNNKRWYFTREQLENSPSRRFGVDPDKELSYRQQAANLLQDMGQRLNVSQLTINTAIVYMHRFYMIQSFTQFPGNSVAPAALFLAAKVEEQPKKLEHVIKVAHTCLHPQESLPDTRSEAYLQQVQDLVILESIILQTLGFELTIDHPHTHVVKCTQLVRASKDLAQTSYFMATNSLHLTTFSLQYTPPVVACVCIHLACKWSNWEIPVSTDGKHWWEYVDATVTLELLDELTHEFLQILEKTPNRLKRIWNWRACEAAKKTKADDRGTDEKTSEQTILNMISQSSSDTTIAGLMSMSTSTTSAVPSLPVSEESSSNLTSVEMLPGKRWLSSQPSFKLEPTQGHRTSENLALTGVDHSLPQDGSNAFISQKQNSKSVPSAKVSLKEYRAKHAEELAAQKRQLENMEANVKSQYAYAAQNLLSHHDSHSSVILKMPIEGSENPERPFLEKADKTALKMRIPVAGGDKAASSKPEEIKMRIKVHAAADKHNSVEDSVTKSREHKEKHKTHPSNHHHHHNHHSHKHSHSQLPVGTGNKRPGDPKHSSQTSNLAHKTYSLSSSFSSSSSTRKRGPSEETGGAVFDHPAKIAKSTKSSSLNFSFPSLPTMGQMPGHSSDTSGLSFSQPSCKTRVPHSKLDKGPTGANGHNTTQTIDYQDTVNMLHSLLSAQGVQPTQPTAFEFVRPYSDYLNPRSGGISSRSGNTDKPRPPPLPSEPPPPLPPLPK
Sequence of CDK9/cyclin T1 (P50750 whole entry): as the sequence (P50750 whole entry, looked up) above

For COc1cc(F)ccc1-c1ncnc(Nc2cccc(CS(C)(=O)=NC(=O)CCCCCCCC(=O)NCCNc3cccc4c3C(=O)N(C3CCC(=O)NC3=O)C4=O)c2)n1 (stereo not drawn), the “Ratio IC50” value [1] was 20, the Activity [2] was 16% and the Activity [3] was 14.3%. For the same molecule, the Activity [4] was 14.8%, the Activity [5] was 22.1% and the viability at 0.001 µM [6] was 79.1%. The Activity [7] was < 10%, the IC50 [8] was 1220 nM and the Activity [9] was 11.5%. For the same molecule, the Activity [10] was 0%, the Activity [11] was 26.8% and the Activity [12] was “Active”. The IC50 [13] was 8.68 nM, the IC50 [14] was 3080 nM and the Activity [15] was 0.47%. For the same molecule, the Activity [16] was 67.9%, the IC50 [17] was 2110 nM and the IC50 [18] was 1400 nM. It also gave an Activity [19] of 14%, an Activity [20] of 0.77% and an Activity [21] of 22.3%. For the same molecule, the Activity [22] was “inactive”, the Activity [23] was “inactive” and the viability at 1 µM [24] was 28.2%. For the same molecule, the Activity [25] was “inactive”, the half-life [26] was 1.3 h and the Activity [27] was 0.47%. The Activity [28] was 0.72%, the Activity [29] was 45.1% and the Activity [30] was “inactive”. It also gave an IC50 [31] of 120 nM, an Activity [32] of 0.28% and an Activity [33] of 54.2%.
